Where a name gives a salt, the structure may show the parent alone.
Test system: proMMP-9 production by human TNFα stimulated THP-1 cell
Experiment: Action on proMMP-9 production by human TNFα stimulated THP-1 cell (ELISA of culture supernatant)
Format: cell-based
Details: THP-1 cells, human TNFα 10 ng/mL, 24 hr; IC50 from 3 concentrations (5, 50, 500 or 1, 10, 100 nmol/L); read-out: proMMP-9 suppression rate IC50
Description: Experimental Example 1: Action of Human TNFα Stimulated THP-1 Cell on proMMP-9 Production
THP-1 cell (human monocytic leukemia cell line) was adjusted to 1×10^7 cells/mL in a culture medium (10% fetal bovine serum/RPMI1640 medium), and dispensed to a 96 well multiplate. This was equilibrated under the conditions of 37° C./5% CO2, and a culture medium containing human TNFα (final concentration 10 ng/mL) and a test compound was dissolved therein. After incubation under the conditions of 37° C./5% CO2 for 24 hr, the culture medium was centrifuged and the culture supernatant was collected, which was subjected to the following measurement.
Quantification of proMMP-9 in Culture Supernatant
The proMMP-9 concentration of the collected culture supernatant was quantified using a commercially available measurement reagent (manufactured by GE Healthcare, MMP-9, Human, Biotrak ELISA System).
Calculation of proMMP-9 Suppression Rate
The proMMP-9 suppression rate of the test compound was calculated from the following formula: % suppression=100−((Test−Min)/(Max−Min)×100) wherein Max is proMMP-9 concentration of culture supernatant induced by stimulation with human TNFα, without addition of a test compound (added with solvent alone) Min is proMMP-9 concentration of culture supernatant without addition of a test compound (added with solvent alone) and without stimulation with human TNFα, and Test is proMMP-9 concentration of culture supernatant induced by stimulation with human TNFα when a test compound is added.
Furthermore, the concentration of the test compound necessary for suppressing proMMP-9 production by human TNFα stimulated THP-1 cell by 50% (IC50 value) was calculated from 3 points of proMMP-9 suppression rate at test compound concentrations of 5, 50 and 500 nmol/L or 1, 10 and 100 nmol/L.
MMP-9 is produced as a precursor proMMP-9 by the stimulated cells, extracellularly activated and expresses the physiological activity as MMP-9. That is, evaluation of the suppression of proMMP-9 produced by the cell means evaluation of the suppression of production of MMP-9. The same applies to MMP-2, and evaluation of the suppression of proMMP-2 produced by the cell means evaluation of the suppression of production of MMP-2.

Compound | IC50 [nM]
Cc1cc(C2CC2)cnc1N1CCN(C(=O)c2ccc(C3(C4CCC4)NC(=O)NC3=O)cc2)CC1 (stereo not shown) [Example 322, 5-cyclobutyl-5-{4-[4-(5-cyclopropyl-3-methylpyridin-2-yl)piperazine-1-carbonyl]phenyl}imidazolidine-2,4-dione] | < 1
Cc1ccc(OC2CCN(C(=O)c3ccc([C@@]4(C)NC(=O)NC4=O)cc3)CC2)cc1 [Example 152, (R)-5-methyl-5-[4-(4-p-tolyloxypiperidine-1-carbonyl]phenyl}imidazolidine-2,4-dione] | 14
Cc1cnc(N2CCN(C(=O)c3ccc(C4(C(C)C)NC(=O)NC4=O)s3)CC2)c(C)c1 (stereo not shown) [Example 114, 5-{5-[4-(3,5-dimethylpyridin-2-yl)piperazine-1-carbonyl]thiophen-2-yl}-5-isopropylimidazolidine-2,4-dione] | 82
Cc1ccc2nc(C3CCN(C(=O)c4ccc([C@@]5(C(C)C)NC(=O)NC5=O)cc4)CC3)sc2n1 [Example 222, (R)-5-isopropyl-5-{4-[4-(5-methylthiazolo[5,4-b]pyridin-2-yl)piperidine-1-carbonyl]phenyl}imidazolidine-2,4-dione] | 76
Cc1ccc2c(C3CCN(C(=O)c4ccc([C@@]5(C)NC(=O)NC5=O)cc4)CC3)c[nH]c2c1 [Example 345, (R)-5-methyl-5-{4-[4-(6-methyl-1H-indol-3-yl)piperidine-1-carbonyl]phenyl}imidazolidine-2,4-dione] | 15
Cc1cc(C)c(N2CCN(C(=O)c3ccc(C4(c5ccccc5)NC(=O)NC4=O)cc3)CC2)nc1C (stereo not shown) [Example 108, 5-phenyl-5-{4-[4-(3,5,6-trimethylpyridin-2-yl)piperazine-1-carbonyl]phenyl}imidazolidine-2,4-dione] | 11
CC(C)[C@]1(c2ccc(C(=O)N3CCC(c4nc5cc(C(F)(F)F)ccc5s4)CC3)cc2)NC(=O)NC1=O [Example 262, (R)-5-isopropyl-5-{4-[4-(5-trifluoromethylbenzothiazol-2-yl)piperidine-1-carbonyl]phenyl}imidazolidine-2,4-dione] | 13
CC[C@]1(c2ccc(C(=O)N3CCC(c4cn(-c5ccc(C)cc5)cn4)CC3)cc2)NC(=O)NC1=O [Example 175, (R)-5-ethyl-5-{4-[4-(1-p-tolyl-1H-imidazol-4-yl)piperidine-1-carbonyl]phenyl}imidazolidine-2,4-dione] | 88
Cc1cnc(N[C@H]2C[C@@H](C#N)N(C(=O)c3ccc([C@@]4(C(C)C)NC(=O)NC4=O)cc3)C2)c(C)c1 [Example 198, (2S,4S)-4-(3,5-dimethylpyridin-2-ylamino)-1-[4-((R)-4-isopropyl-2,5-dioxoimidazolidin-4-yl)benzoyl]pyrrolidine-2-carbonitrile] | 2
CC[C@]1(c2ccc(C(=O)N3CCN(c4ncc(C)cc4C)CC3)cc2)NC(=O)NC1=O [Example 124, (R)-5-{4-[4-(3,5-dimethylpyridin-2-yl)piperazine-1-carbonyl]phenyl}-5-ethylimidazolidine-2,4-dione] | 1
CCC1(c2ccc(C(=O)N3CCC(c4cc(-c5ccc(C)cc5)[nH]n4)CC3)cn2)CC(=O)NC1=O (stereo not shown) [Example 165, 3-ethyl-3-{5-[4-(5-p-tolyl-1H-pyrazol-3-yl)piperidine-1-carbonyl}pyridin-2-yl}pyrrolidine-2,5-dione] | 90
Cc1ccc(C(=O)C2CCN(C(=O)c3ccc([C@@]4(C)NC(=O)NC4=O)cc3)CC2)cc1 [Example 150, (R)-5-methyl-5-{4-[4-(4-methylbenzoyl)piperidine-1-carbonyl]phenyl}imidazolidine-2,4-dione] | 25
CCC1(c2ccc(C(=O)N3CCC(c4cn(-c5ccc(C)cc5)nn4)CC3)cc2F)NC(=O)NC1=O (stereo not shown) [Example 178, 5-ethyl-5-{2-fluoro-4-[4-(1-p-tolyl-1H-[1,2,3]triazol-4-yl)piperidine-1-carbonyl]phenyl}imidazolidine-2,4-dione] | 34
Cc1cnc(N2CCN(C(=O)c3ccc(C4(C(C)C)NC(=O)NC4=O)c(O)c3)CC2)c(C)c1 (stereo not shown) [Example 20, 5-{4-[4-(3,5-dimethylpyridin-2-yl)piperazine-1-carbonyl]-2-hydroxyphenyl}-5-isopropylimidazolidine-2,4-dione] | 6
Cc1cnc(N2CCN(C(=O)c3ccc(C4(C(C)C)C(=O)NC(=O)N4C)cc3)CC2)c(C)c1 (stereo not shown) [Example 182, 5-{4-[4-(3,5-dimethylpyridin-2-yl)piperazine-1-carbonyl]phenyl}-5-isopropyl-1-methylimidazolidine-2,4-dione] | 67
Cc1cnc(N2CCN(C(=O)c3ccc(C4(C(C)(C)C)NC(=O)NC4=O)cc3)CC2)c(C)n1 (stereo not shown) [Example 137, 5-tert-butyl-5-[4-(3′,5′-dimethyl-2,3,5,6-tetrahydro[1,2′]bipyrazinyl-4-carbonyl)phenyl]imidazolidine-2,4-dione] | 14
Cc1cc(F)c2c(C3CCN(C(=O)c4ccc([C@@]5(C)NC(=O)NC5=O)cc4)CC3)n[nH]c2c1 [Example 280, (R)-5-{4-[4-(4-fluoro-6-methyl-1H-indazol-3-yl)piperidine-1-carbonyl]phenyl}-5-methylimidazolidine-2,4-dione] | < 5
Cc1cnc(NC2CN(C(=O)c3ccc([C@@]4(C(C)C)NC(=O)NC4=O)cc3)C2)c(C)c1 [Example 185, (R)-5-{4-[3-(3,5-dimethylpyridin-2-ylamino)azetidine-1-carbonyl]phenyl}-5-isopropylimidazolidine-2,4-dione.hydrochloride] | 82
CC[C@]1(c2ccc(C(=O)N3CCC(c4nnn(-c5ccc(C)cc5)n4)CC3)cc2)NC(=O)NC1=O [Example 170, (R)-5-ethyl-5-{4-[4-(2-p-tolyl-2H-tetrazol-5-yl)piperidine-1-carbonyl]phenyl}imidazolidine-2,4-dione] | 60
CC(=O)OCN1C(=O)N[C@](C)(c2ccc(C(=O)N3CCC(n4cc5cc(C)cc(C)c5n4)CC3)cc2)C1=O [Example 350, acetic acid (R)-4-{4-[4-(5,7-dimethylindazol-2-yl)piperidine-1-carbonyl]phenyl]-4-methyl-2,5-dioxoimidazolidin-1-ylmethyl ester] | 115
CC(C)[C@]1(c2ccc(C(=O)N3CCN(c4nc5ccccc5n4C)CC3)cc2)NC(=O)NC1=O [Example 243, (R)-5-isopropyl-5-{4-[4-(l-methyl-1H-benzimidazol-2-yl)piperazine-1-carbonyl]phenyl}imidazolidine-2,4-dione] | 27
CC[C@]1(c2ccc(C(=O)N3CCC(c4cnn(-c5ccc(C)cc5)c4)CC3)cc2)NC(=O)NC1=O [Example 27, (R)-5-ethyl-5-{4-[4-(1-p-tolyl-1H-pyrazol-4-yl)piperidine-1-carbonyl]phenyl}imidazolidine-2,4-dione] | 16
COCC1CN(C(=O)c2ccc([C@@]3(C(C)C)NC(=O)NC3=O)cc2)CCN1c1ncc(C)cc1C (stereo partly drawn) [Example 66, (R)-5-{4-[4-(3,5-dimethylpyridin-2-yl)-3-methoxymethylpiperazine-1-carbonyl]phenyl}-5-isopropylimidazolidine-2,4-dione] | < 5
Cc1cnc2c(c1)CCN2[C@H]1CCN(C(=O)c2ccc([C@@]3(C(C)C)NC(=O)NC3=O)cc2)C1 [Example 158, (R)-5-isopropyl-5-{4-[(S)-3-(5-methyl-2,3-dihydropyrrolo[2,3-b]pyridin-1-yl)pyrrolidine-1-carbonyl]phenyl}imidazolidine-2,4-dione] | 49
Cc1ccc(-c2cnn(C3CCN(C(=O)c4ccc([C@@]5(C)NC(=O)NC5=O)cc4)CC3)c2)cc1 [Example 346, (R)-5-methyl-5-{4-[4-(4-p-toluylpyrazol-1-yl)piperidine-1-carbonyl]phenyl}imidazolidine-2,4-dione] | 88
CC(C)[C@]1(c2ccc(C(=O)N3CCC(c4ncc(-c5ccccc5)s4)CC3)cc2)NC(=O)NC1=O [Example 259, (R)-5-isopropyl-5-{4-[4-(5-phenylthiazol-2-yl)piperidine-1-carbonyl]phenyl}imidazolidine-2,4-dione] | 60
CC(C)[C@]1(c2ccc(C(=O)N3CCC(c4nnc(-c5ccccc5)s4)CC3)cc2)NC(=O)NC1=O [Example 227, (R)-5-isopropyl-5-{4-[4-(5-phenyl[1,3,4]thiadiazol-2-yl)piperidine-1-carbonyl]phenyl}imidazolidine-2,4-dione] | 84
Cc1cnc(N2CCN(C(=O)c3ccc(C4(C(C)(C)C)NC(=O)NC4=O)cn3)CC2)c(C)c1 (stereo not shown) [Example 335, 5-tert-butyl-5-{6-[4-(3,5-dimethylpyridin-2-yl)piperazine-1-carbonyl]pyridin-3-yl}imidazolidine-2,4-dione] | 1

Reference: patent US10407408B2, “Imide derivatives and use thereof as medicine” (MITSUBISHI TANABE PHARMA CORPORATION, priority 2015, dated 2019)
